Reference: US20030158540A1, “METHOD FOR DECREASING CATHETER-ASSOCIATED BACTERIURIA” (priority 2002, published 2003)

Key:
[1] = system: bacteriuria / bag contamination; details: cited from earlier work
[2] = system: bacterial contamination of the drainage bag; details: 30 ml every eight hours; thirty-one patients; cited from earlier work
[3] = system: catheter-associated urinary tract infections; details: 30 ml in drainage bags every eight hours, cited from earlier work
[4] = system: types and levels of bacteria in the drainage bag; assay: One-time instillation and drainage of irrigation solution into urinary drainage bags of long-term catheterized patients; urine cultures at 24-hour intervals; type: in vivo; details: for mean values for categories of colony count: score 3 = >100,000, 2 = 10,000 to 100,000, 1 = <10,000; for mean number of different types of organisms identified: about 50 ml one-time dose
Text: The type of irrigation solution used constituted the independent variable. The irrigation solutions were sterile hydrogen peroxide and sterile distilled vinegar (as used herein, containing about 5 wt. % acetic acid). […] Hydrogen peroxide decomposes rapidly when exposed to light or organic matter. Vinegar is a weak acetic acid solution derived from alcohol by the action of Acetobacter. Vinegar is distilled to remove color and other impurities, yielding what is referred to as white vinegar.
The dependent variables of the investigation were the types and levels of bacteria in the drainage bag, at twenty-four hour intervals of incubation, during treatment conditions. A certified laboratory was contracted to determine the germicidal values of the solutions tested. After twenty-four hours of incubation at about 37° C. […], bacterial growth was recorded at twenty-four hour intervals. Laboratory protocol for reporting types and number of bacteria provided results by identification of the organism by species present in the specimen.
For the study, a total of fifty-seven subjects were initially identified to participate in the study: fifteen from three hospitals and forty-two from ten skilled nursing facilities. […] Patients who were febrile, acutely ill, receiving antibiotic therapy, or with symptoms of urinary tract infection were excluded based on a review of the patient's chart. Patients with other methods of urinary drainage, such as condom catheter drainage, superpubic catheterization, and intermittent urethral catheterization, were not considered. Moreover, because of the chance of cross-infection, infected and uninfected patients with indwelling urinary catheters who shared the same room or adjacent beds were not considered.
The patients were randomly assigned to three experimental groups: one group was designated a control group whose catheter drainage bags were not treated with an irrigation solution; the drainage bags of the remaining groups were treated with one of the two irrigation solutions investigated. The methods of data collection were verified prior to the commencement of the study by use of a literature review and institutional review board pre approval. All urine collection was made between 5:00 A.M. and 6:30 A.M. The urine specimens were promptly refrigerated and transported to the microbiology laboratory. Organisms and colony counts were identified by standard laboratory methods.
The research approach carried out in the study comprised four primary steps: (1) collection of urine from the catheter drainage bags for baseline cultures; (2) instillation of the irrigation solution into the drainage bags; (3) collection of urine from the drainage bags at 24-hour intervals; and (4) evaluation of the results of bacterial growth at 24-hour intervals. The initial concentration of bacteria in each drainage bag was determined prior to instillation of the irrigation solution. With regard to the patients in the groups whose drainage bags were treated with hydrogen peroxide or distilled vinegar, the drainage bags (approximate filled volume of about 50 to 150 ml) were emptied of any residual urine, after which the distal segment of the Foley catheter was clamped to avoid any possibility of reagent reflux into the patient's bladder.

[5] = system: urinary bag bacterial growth; details: daily decontamination with dilute bleach (5.25%); cited from earlier work
[6] = forty-eight hours after instillation

| Structure (SMILES) | rate of bacteriuria ([1]; instillation of H2O2, N=238) | rate of bag contamination ([1]; peroxide group, control group 34%, P≦0.05) | bacterial contamination of the drainage bag [2] | catheter-associated urinary tract infections ([3]; P<0.05) | bags from which bacteria continued to be isolated [3] | mean values for categories of colony count ([4]; 00 h (baseline)) | mean number of different types of organisms identified ([4]; 00 h (baseline, before instillation)) | mean number of different types of organisms identified ([4]; 24 h) | mean values for categories of colony count ([4]; 24 h) | mean number of different types of organisms identified ([4]; 48 h) | mean values for categories of colony count ([4]; 48 h) | mean number of different types of organisms identified ([4]; 72 h) | mean values for categories of colony count ([4]; 72 h) | colonies of bacteria compared to the control group (post hoc analysis) [4, 6] | types of organisms compared to the control group (post hoc analysis) [4, 6] | bag cultures [5] | decrease in urinary bag bacterial growth [5] |
| --- | --- | --- | --- | --- | --- | --- | --- | --- | --- | --- | --- | --- | --- | --- | --- | --- | --- |
| OO [Hydrogen Peroxide, Hydrogen peroxide] | no reduction | 17% | could be eliminated effectively | significant reduction | five of thirty | 6.2 | 2.6 | 2.3 | 5.6 | 2.1 | 5.3 | 1.5 | 3.8 | no statistically significant difference | no statistically significant difference | – | – |
| OCl [sodium hypochlorite] | – | – | – | – | – | – | – | – | – | – | – | – | – | – | – | ≤ 50 CFU's/ml | 76.5% |
